Results: the CheMixHub ionic liquid set
± gives the uncertainty stated by the source.

Test: xn = mol fraction of the nth substance listed

CCCC[n+]1ccn(C)c1.F[B-](F)(F)F + CC(C)=O
Conditions | electrical conductivity [S/m] | viscosity [mPa·s]
296.15 K, 101 kPa, x2 = 0 | 0.35 ± 0.04 | –
296.15 K, 101 kPa, x2 = 0.3019 | 2.03 ± 0.2 | –
296.15 K, 101 kPa, x2 = 0.6252 | 2.89 ± 0.29 | –
296.15 K, 101 kPa, x2 = 0.7956 | 3.5 ± 0.35 | –
296.15 K, 101 kPa, x2 = 0.8537 | 3.61 ± 0.36 | –
296.15 K, 101 kPa, x2 = 0.9008 | 3.71 ± 0.37 | –
296.15 K, 101 kPa, x2 = 0.9396 | 2.92 ± 0.29 | –
296.15 K, 101 kPa, x2 = 0.9722 | 1.66 ± 0.17 | –
298.15 K, 101 kPa, x2 = 0 | 0.194 ± 0.023 | 116 ± 40
298.15 K, 101 kPa, x2 = 0.0973 | 0.311 ± 0.037 | 78 ± 14
298.15 K, 101 kPa, x2 = 0.1863 | 0.44 ± 0.053 | 53.3 ± 2.1
298.15 K, 101 kPa, x2 = 0.2878 | 0.623 ± 0.075 | 34.2 ± 3.4
298.15 K, 101 kPa, x2 = 0.3877 | 0.87 ± 0.1 | 21.4 ± 2.2
298.15 K, 101 kPa, x2 = 0.4853 | 1.18 ± 0.14 | 12.9 ± 1.4
298.15 K, 101 kPa, x2 = 0.5858 | 1.61 ± 0.19 | 7.39 ± 0.88
298.15 K, 101 kPa, x2 = 0.6762 | 1.98 ± 0.24 | 4.24 ± 0.56
298.15 K, 101 kPa, x2 = 0.8151 | 2.2 ± 0.26 | 1.61 ± 0.23
303.15 K, 100 kPa, x1 = 0.0999 | – | 0.726 ± 0.009
303.15 K, 100 kPa, x1 = 0.2 | – | 1.48 ± 0.017
303.15 K, 100 kPa, x1 = 0.3002 | – | 2.789 ± 0.032
303.15 K, 100 kPa, x1 = 0.4003 | – | 4.968 ± 0.056
303.15 K, 100 kPa, x1 = 0.4996 | – | 8.387 ± 0.092
303.15 K, 100 kPa, x1 = 0.6008 | – | 14.14 ± 0.15
303.15 K, 100 kPa, x1 = 0.7006 | – | 22.8 ± 0.25
303.15 K, 100 kPa, x1 = 0.7995 | – | 35.07 ± 0.38
303.15 K, 100 kPa, x1 = 0.9 | – | 54.72 ± 0.56
303.15 K, 100 kPa, x1 = 1 | – | 85.4 ± 1.1
313.15 K, 100 kPa, x1 = 0.0999 | – | 0.654 ± 0.008
313.15 K, 100 kPa, x1 = 0.2 | – | 1.3 ± 0.015
313.15 K, 100 kPa, x1 = 0.3002 | – | 2.394 ± 0.027
313.15 K, 100 kPa, x1 = 0.4003 | – | 4.185 ± 0.047
313.15 K, 100 kPa, x1 = 0.4996 | – | 6.706 ± 0.074
313.15 K, 100 kPa, x1 = 0.6008 | – | 10.83 ± 0.12
313.15 K, 100 kPa, x1 = 0.7006 | – | 16.72 ± 0.18
313.15 K, 100 kPa, x1 = 0.7995 | – | 24.44 ± 0.26
313.15 K, 100 kPa, x1 = 0.9 | – | 36.14 ± 0.39
313.15 K, 100 kPa, x1 = 1 | – | 53.84 ± 0.55
323.15 K, 100 kPa, x1 = 0.0999 | – | 0.595 ± 0.007
323.15 K, 100 kPa, x1 = 0.2 | – | 1.171 ± 0.013
323.15 K, 100 kPa, x1 = 0.3002 | – | 2.094 ± 0.024
323.15 K, 100 kPa, x1 = 0.4003 | – | 3.567 ± 0.04
323.15 K, 100 kPa, x1 = 0.4996 | – | 5.516 ± 0.062
323.15 K, 100 kPa, x1 = 0.6008 | – | 8.67 ± 0.095
323.15 K, 100 kPa, x1 = 0.7006 | – | 12.67 ± 0.14
323.15 K, 100 kPa, x1 = 0.7995 | – | 17.99 ± 0.19
323.15 K, 100 kPa, x1 = 0.9 | – | 25.35 ± 0.27
323.15 K, 100 kPa, x1 = 1 | – | 36.27 ± 0.39

CCCC[n+]1ccn(C)c1.F[B-](F)(F)F + CC(C)C[C@H](N)C(=O)O + O
viscosity [mPa·s], 100 kPa
Conditions | 293.15 K | 298.15 K | 303.15 K | 308.15 K | 313.15 K | 318.15 K
x2 = 0, x1 = 0.0003729 | 1.03 ± 0.061 | 0.917 ± 0.061 | 0.835 ± 0.061 | 0.751 ± 0.061 | 0.693 ± 0.061 | 0.638 ± 0.061
x2 = 0, x1 = 0.0007257 | 1.062 ± 0.061 | 0.951 ± 0.061 | 0.868 ± 0.061 | 0.789 ± 0.061 | 0.736 ± 0.061 | 0.681 ± 0.061
x2 = 0, x1 = 0.0011 | 1.093 ± 0.061 | 0.983 ± 0.061 | 0.904 ± 0.061 | 0.83 ± 0.061 | 0.779 ± 0.061 | 0.725 ± 0.061
